Reference: patent US11230538B2, “Herbicides” (SYNGENTA PARTICIPATIONS AG, priority 2016, dated 2022)

Key:
Assay type in all cases: in vivo
[1] = tested on: Amaranthus retroflexus (AMARE); assay: B1 Pre-emergence herbicidal activity; parameters: key: 5=total damage to plant; 0=no damage to plant; conditions: pre-emergence application, Rate 1000 g/ha, evaluated after 13 days, Test 1b
Method in brief: (§1)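 Damage was rated visually on a 0–5 scale (0 no damage, 5 total damage) 13 days after treatment. Soil-sown seeds had been sprayed one day after sowing with an aqueous acetone/water (50:50) solution containing 0.5% Tween 20, then kept in a glasshouse at 24/16 °C, 14 h light, 65% humidity.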

Zea Mays (ZEAMX) [2] = assay: B1 Pre-emergence herbicidal activity; parameters: key: 5=total damage to plant; 0=no damage to plant; conditions: pre-emergence application, Rate 1000 g/ha, evaluated after 13 days, Test 1b
Method in brief: as §1

[3] = tested on: Echinochloa crus-galli (ECHCG); assay: B1 Pre-emergence herbicidal activity; conditions: pre-emergence application, Rate 1000 g/ha, evaluated after 13 days, Test 1b
Method in brief: as §1

Lolium perenne (LOLPE) [4] = assay: B1 Pre-emergence herbicidal activity; conditions: pre-emergence application, Rate 1000 g/ha, evaluated after 13 days, Test 1b
Method in brief: as §1

[5] = tested on: Abutilon theophrasti (ABUTH); assay: B1 Pre-emergence herbicidal activity; conditions: pre-emergence application, Rate 1000 g/ha, evaluated after 13 days, Test 1b
Description: Seeds of a variety of test species were sown in standard soil in pots: Triticum aestivium (TRZAW), Avena fatua (AVEFA), Alopecurus myosuroides (ALOMY), Echinochloa crus-galli (ECHCG), Lolium perenne (LOLPE), Zea Mays (ZEAMX), Abutilon theophrasti (ABUTH), Amaranthus retroflexus (AMARE) and Setaria fabenr (SETFA). After cultivation for one day (pre-emergence) under controlled conditions in a glasshouse (at 24/16° C., day/night; 14 hours light; 65% humidity), the plants were sprayed with an aqueous spray solution derived from the formulation of the technical active ingredient in acetone I water (50:50) solution containing 0.5% Tween 20 (polyoxyethelyene sorbitan monolaurate, CAS RN 9005-64-5). The test plants were then grown in a glasshouse under controlled conditions (at 24/16° C., day/night; 14 hours light; 65% humidity) and watered twice daily. After 13 days, the test was evaluated (5=total damage to plant; 0=no damage to plant).

Setaria fabenr (SETFA) = assay: B1 Pre-emergence herbicidal activity; conditions: pre-emergence application, Rate 1000 g/ha, evaluated after 13 days, Test 1b
Method in brief: as §1

[6] = tested on: Abutilon theophrasti (ABUTH); assay: B2 Post-emergence herbicidal activity; conditions: post-emergence application, Rate 1000 g/ha, evaluated after 13 days, Test 2b
Method in brief: (§2)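 Visual damage score (0 = none, 5 = total) taken 13 days after treatment. Seedlings had been cultivated 8 days in pots of standard soil before being sprayed with an aqueous solution of compound in acetone/water (50:50) containing 0.5% Tween 20.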

[7] = tested on: Amaranthus retroflexus (AMARE); assay: B2 Post-emergence herbicidal activity; conditions: post-emergence application, Rate 1000 g/ha, evaluated after 13 days, Test 2b
Method in brief: as §2

[8] = tested on: Echinochloa crus-galli (ECHCG); assay: B2 Post-emergence herbicidal activity; conditions: post-emergence application, Rate 1000 g/ha, evaluated after 13 days, Test 2b
Method in brief: as §2

Lolium perenne (LOLPE) [9] = assay: B2 Post-emergence herbicidal activity; conditions: post-emergence application, Rate 1000 g/ha, evaluated after 13 days, Test 2b
Method in brief: as §2

Setaria fabenri (SETFA) = assay: B2 Post-emergence herbicidal activity; parameters: key: 5=total damage to plant; 0=no damage to plant; conditions: post-emergence application, Rate 1000 g/ha, evaluated after 13 days, Test 2b
Method in brief: as §2

Zea Mays (ZEAMX) [10] = assay: B2 Post-emergence herbicidal activity; parameters: key: 5=total damage to plant; 0=no damage to plant; conditions: post-emergence application, Rate 1000 g/ha, evaluated after 13 days, Test 2b
Method in brief: as §2

| Compound | AMARE damage score (0-5) [1] | ZEAMX damage score (0-5) (Zea Mays (ZEAMX) [2]) | ECHCG damage score (0-5) [3] | LOLPE damage score (0-5) (Lolium perenne (LOLPE) [4]) | ABUTH damage score (0-5) [5] | SETFA damage score (0-5) (Setaria fabenr (SETFA)) | ABUTH damage score (0-5) [6] | AMARE damage score (0-5) [7] | ECHCG damage score (0-5) [8] | LOLPE damage score (0-5) (Lolium perenne (LOLPE) [9]) | SETFA damage score (0-5) (Setaria fabenri (SETFA)) | ZEAMX damage score (0-5) (Zea Mays (ZEAMX) [10]) |
| --- | --- | --- | --- | --- | --- | --- | --- | --- | --- | --- | --- | --- |
| CC(C)C(=O)Nc1ccc(-c2cncc(F)c2)nc1C(F)(F)F [Compound C10, N-[6-(5-fluoro-3-pyridyl)-2-(trifluoromethyl)-3-pyridyl]-2-methyl-propanamide] | 0 | 5 | 4 | 2 | 1 | 4 | 1 | 1 | 4 | 3 | 4 | 5 |
| CC(=O)Nc1ccc(-c2cncc(F)c2)nc1C(F)(F)F [Compound C9, N-[6-(5-fluoro-3-pyridyl)-2-(trifluoromethyl)-3-pyridyl]acetamide] | 2 | 5 | 3 | 2 | 1 | 4 | 2 | 2 | 4 | 3 | 5 | 5 |
